Source: US7598397B2, “Sulfonamide peri-substituted bicyclics for occlusive artery disease” (deCODE genetics ehf, priority 2004, dated 2009)

What follows are compounds tested against T1, prostanoid EP3 receptors (Homo sapiens, UniProt P43115) (assay: binding on prostanoid EP3 receptors (method of Abramovitz et al.)). Settings: read-out: Activity (EP3 receptor binding, IC50 class).
T1 sequence (P43115 1-390): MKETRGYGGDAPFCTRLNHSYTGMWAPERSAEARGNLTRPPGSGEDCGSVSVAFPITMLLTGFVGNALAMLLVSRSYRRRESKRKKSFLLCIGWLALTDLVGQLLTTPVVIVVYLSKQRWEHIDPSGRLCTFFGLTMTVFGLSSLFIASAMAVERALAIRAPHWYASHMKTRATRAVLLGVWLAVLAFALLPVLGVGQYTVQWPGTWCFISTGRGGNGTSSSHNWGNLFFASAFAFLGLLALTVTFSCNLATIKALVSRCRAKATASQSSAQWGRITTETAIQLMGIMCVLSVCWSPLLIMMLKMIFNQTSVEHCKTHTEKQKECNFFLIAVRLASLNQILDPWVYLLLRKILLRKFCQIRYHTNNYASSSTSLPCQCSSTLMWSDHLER
Description: The compounds of the invention were assayed for their binding on prostanoid EP3 receptors according to the method of Abramovitz et al. [Bioch. Biophys.

| SMILES | IC50 [nM] |
| --- | --- |
| Cn1cc(C=CC(=O)NS(=O)(=O)c2cc(F)c(F)cc2F)c2c(Oc3ccc(Cl)cc3)cccc21 [Compound P309] | < 1000 |
| CC12CCCC(CCC(=O)NS(=O)(=O)c3cc(Cl)c(Cl)s3)C1N(Cc1ccc(F)c(F)c1)C(=O)C2 (centres unmarked) [Compound P415] | < 1000 |
| Cn1cc(C=CC(=O)NS(=O)(=O)c2ccc(F)c(F)c2)c2c(Oc3ccc4ncccc4c3)cccc21 [Compound P376] | < 1000 |
| O=C(COc1cccc2[nH]cc(Sc3nc4ccccc4s3)c12)NS(=O)(=O)c1cc(Cl)c(Cl)s1 [Compound P182] | < 1000 |
| CC1C(=O)N(Cc2ccc3ccccc3c2)c2c(C=CC(=O)NS(=O)(=O)c3cccs3)cccc21 (centres unmarked) [Compound P059] | < 1000 |
| COc1cccc(Cn2cc(C)c3cccc(/C=C/C(=O)NS(=O)(=O)c4cc(Cl)c(Cl)s4)c32)c1 [Compound P142] | < 1000 |
| Cn1cc(C=CC(=O)NS(=O)(=O)c2cc(Cl)c(Cl)s2)c2c(Oc3ccc(Cl)cc3Cl)cccc21 [Compound P303] | < 1000 |
| Cc1cn(Cc2ccc(F)c(F)c2)c2c(/C=C/C(=O)NS(=O)(=O)c3cccs3)cccc12 [Compound P103] | < 1000 |
| COc1c(C)cnc(Cn2ccc3cccc(C=CC(=O)NS(=O)(=O)c4cccs4)c32)c1C [Compound P055] | 1000 to 10000 |
| CC1C(=O)N(Cc2ccc3ccccc3c2)c2c(C=CC(=O)NS(=O)(=O)c3cccs3)cc(F)cc21 (centres unmarked) [Compound P066] | < 1000 |
| Cn1cc(CCC(=O)NS(=O)(=O)c2cc(F)c(F)cc2F)c2c(Oc3ccc4ccccc4c3)cccc21 [Compound P412] | < 1000 |
| COc1ccc(S(=O)(=O)c2c[nH]c3cccc(OCC(=O)NS(=O)(=O)c4cc(Cl)c(Cl)s4)c23)cc1OC [Compound P170] | < 1000 |
| Cn1cc(C=CC(=O)NS(=O)(=O)c2ccc(Cl)c(Cl)c2)c2c(Oc3ccc4ccccc4c3)cccc21 [Compound P355] | < 1000 |
| Cc1cn(Cc2ccc(Cl)cc2Cl)c2c(C(=O)NS(=O)(=O)c3ccc(F)c(F)c3)cc(F)cc12 [Compound P417] | < 1000 |
| Cc1cn(Cc2cn3ccccc3n2)c2c(C=CC(=O)NS(=O)(=O)c3ccccc3F)cc(F)cc12 [Compound P409] | < 1000 |
| COc1cccc(CN2C(=O)COc3cccc(OCC(=O)NS(=O)(=O)c4cccs4)c32)c1 [Compound P030] | 1000 to 10000 |
| Cc1ccc(S(=O)(=O)c2c[nH]c3cccc(OCC(=O)NS(=O)(=O)c4cc(Cl)c(Cl)s4)c23)c(C)c1 [Compound P172] | < 1000 |
| O=C(COc1cccc2[nH]cc(Sc3ccc4ccccc4c3)c12)NS(=O)(=O)c1cccc(Cl)c1 [Compound P184] | < 1000 |
| O=C(COc1cccc2[nH]cc(Sc3ccccc3Cl)c12)NS(=O)(=O)c1cc(Cl)c(Cl)s1 [Compound P213] | < 1000 |
| Cn1cc(C=CC(=O)NS(=O)(=O)c2ccc(F)c(F)c2)c2c(Oc3ccc(Cl)c(F)c3)cccc21 [Compound P332] | < 1000 |
| O=C(/C=C/c1cccc2c(CO)cn(Cc3ccc(Cl)cc3Cl)c12)NS(=O)(=O)c1cccs1 [Compound P062] | < 1000 |

| SMILES | IC50 [nM] |
| --- | --- |
| CC12CCCC(C=CC(=O)NS(=O)(=O)c3cc(F)cc(F)c3)=C1N(Cc1ccc(Cl)cc1Cl)C(=O)C2 (centres unmarked) [Compound P282] | < 1000 |
| Cc1cn(Cc2ccc(F)c(F)c2)c2c(C=CC(=O)NS(=O)(=O)c3ccc(F)c(F)c3)cc(F)cc12 [Compound P315] | < 1000 |
| Cc1cn(Cc2ccc(Cl)c(Cl)c2)c2c(/C=C/C(=O)NS(=O)(=O)c3cc(Cl)c(Cl)s3)cccc12 [Compound P118] | < 1000 |
| COc1ccccc1Sc1c[nH]c2cccc(OCC(=O)NS(=O)(=O)c3cc(Cl)c(Cl)s3)c12 [Compound P212] | < 1000 |
| O=C(COc1cccc2c1C(Cc1ccc3ccccc3c1)C(=O)N2)NS(=O)(=O)c1cc(Cl)c(Cl)s1 (centres unmarked) [Compound P158] | < 1000 |
| CC12CCCC(C=CC(=O)NS(=O)(=O)c3cc(Cl)c(Cl)s3)=C1N(Cc1cccc(Cl)c1Cl)C(=O)C2 (centres unmarked) [Compound P299] | < 1000 |
| CC12CCCC(C=CC(=O)NS(=O)(=O)c3cc(Cl)c(Cl)s3)=C1N(Cc1ccc(Cl)cc1Cl)C(=O)C2 (centres unmarked) [Compound P278] | < 1000 |
| O=C(COc1cccc2c1N(Cc1ccc(OC(F)F)cc1)C(=O)CO2)NS(=O)(=O)c1cccs1 [Compound P026] | 1000 to 10000 |
| Cc1ccc(C)c(Cn2cc(C)c3cccc(/C=C/C(=O)NS(=O)(=O)c4cc(Cl)c(Cl)s4)c32)c1 [Compound P138] | < 1000 |
| O=C(COc1cccc2c1N(Cc1ccc(Cl)c(Cl)c1)C(=O)CO2)NS(=O)(=O)c1cccs1 [Compound P039] | < 1000 |
| Cc1cn(Cc2ccc3c(c2)OCO3)c2c(/C=C/C(=O)NS(=O)(=O)c3cc(Cl)c(Cl)s3)cccc12 [Compound P139] | < 1000 |
| Cn1cc(/C=C/C(=O)NS(=O)(=O)c2cc(Cl)c(Cl)s2)c2c(Oc3ccc(F)cc3F)cccc21 [Compound P326] | < 1000 |
| Cc1cn(Cc2cn3ccccc3n2)c2c(C=CC(=O)NS(=O)(=O)c3ccc(Cl)c(Cl)c3)cc(F)cc12 [Compound P406] | < 1000 |
| CN1C(=O)C(Oc2ccc3ccccc3c2)c2c(/C=C/C(=O)NS(=O)(=O)c3cc(Cl)c(Cl)s3)cccc21 (centres unmarked) [Compound P265, 4,5-dichloro-thiophene-2-sulfonic acid {(E)-3-[1-methyl-3-(naphthalen-2-yloxy)-2-oxo-2,3-dihydro-1H-indol-4-yl]-acryloyl}-amide] | < 1000 |
| O=C(COc1cccc2[nH]cc(Sc3ccc(Cl)c(Cl)c3)c12)NS(=O)(=O)c1cc(Cl)c(Cl)s1 [Compound P178] | < 1000 |
| Cc1cn(Cc2ccc(Cl)cc2Cl)c2c(C=CC(=O)NS(=O)(=O)c3cc(Cl)c(Cl)s3)cccc12 [Compound P079] | < 1000 |
| CN1C(=O)C(=Nc2ccc3ccccc3c2)c2c(C=CC(=O)NS(=O)(=O)c3cc(Cl)c(Cl)s3)cccc21 [Compound P245] | < 1000 |
| Cc1cn(Cc2ccccc2-c2ccccc2)c2c(/C=C/C(=O)NS(=O)(=O)c3cc(Cl)c(Cl)s3)cccc12 [Compound P125] | < 1000 |
| CC1(Br)C(=O)N(Cc2ccc3ccccc3c2)c2c(C=CC(=O)NS(=O)(=O)c3cccs3)cccc21 (centres unmarked) [Compound P110] | < 1000 |
| O=C(/C=C/c1cccc2c1N(Cc1ccc3ccccc3c1)CC2)NS(=O)(=O)c1cccs1 [Compound P003] | < 1000 |
| O=C(CNc1cccc2c1N(Cc1ccc3ccccc3c1)C(=O)CO2)NS(=O)(=O)c1cccs1 [Compound P049, Thiophen-2-sulfonic acid[2-(4-naphthalen-2-ylmethyl-3-oxo-3,4-dihydro-2H-benzo[1,4]oxazin-5-ylamino)-acetyl]-amide] | 1000 to 10000 |

| SMILES | IC50 [nM] |
| --- | --- |
| O=C(C=Cc1cccc2c1N(Cc1ccc(Cl)cc1Cl)C(=O)C2=O)NS(=O)(=O)c1cc(Cl)c(Cl)s1 [Compound P113] | < 1000 |
| Cc1cn(Cc2ccc3ccccc3c2)c2c(/C=C/C(=O)NS(=O)(=O)c3cccs3)cccc12 [Compound P057] | < 1000 |
| O=C(Cn1c(=O)ccc2cccc(OCc3ccc4ccccc4c3)c21)NS(=O)(=O)c1cccs1 [Compound P012] | > 10000 |
| O=C(COc1cccc2[nH]cc(S(=O)(=O)c3ccc4ccccc4c3)c12)NS(=O)(=O)c1cccc(Cl)c1 [Compound P192] | < 1000 |
| Cc1cn(Cc2cn3ccccc3n2)c2c(C=CC(=O)NS(=O)(=O)c3ccc(Cl)cc3)cc(F)cc12 [Compound P405] | < 1000 |
| Cn1cc(/C=C/C(=O)NS(=O)(=O)c2cc(Cl)c(Cl)s2)c2c(Oc3ccc(Cl)cc3)cccc21 [Compound P311] | < 1000 |
| CN1C(=O)C(C)(Cc2ccc3ccccc3c2)c2c(CCC(=O)NS(=O)(=O)c3cc(Cl)c(Cl)s3)cccc21 (centres unmarked) [Compound P156] | < 1000 |
| O=C(COc1cccc2[nH]cc(Sc3ccc4ccccc4c3)c12)NS(=O)(=O)c1cc(F)c(F)cc1F [Compound P226] | < 1000 |
| CC1C(=O)N(Cc2ccc3ccccc3c2)c2c(C=CC(=O)NS(=O)(=O)c3cc(Cl)c(Cl)s3)cccc21 (centres unmarked) [Compound P112] | < 1000 |
| CC12CCCC(C=CC(=O)NS(=O)(=O)c3cccs3)=C1N(Cc1ccc(Cl)cc1Cl)C(=O)C2 (centres unmarked) [Compound P276] | < 1000 |
| O=C(CN1CCCc2cccc(OCc3ccc4ccccc4c3)c21)NS(=O)(=O)c1cccs1 [Compound P015] | 1000 to 10000 |
| Cn1cc(C=CC(=O)NS(=O)(=O)c2cc(F)c(F)cc2F)c2c(Oc3ccc(F)c(Cl)c3)cccc21 [Compound P328] | < 1000 |
| O=C(COc1cccc2[nH]cc(S(=O)(=O)c3ccc4ccccc4c3)c12)NS(=O)(=O)c1ccc(F)cc1 [Compound P236] | < 1000 |
| O=C(COc1cccc2c1N(Cc1ccccc1)C(=O)CO2)NS(=O)(=O)c1cccs1 [Compound P022] | 1000 to 10000 |
| Cn1cc(C=CC(=O)NS(=O)(=O)c2cc(F)cc(F)c2)c2c(Oc3ccc4ccccc4c3)cccc21 [Compound P361] | < 1000 |
| O=C(COc1cccc2[nH]cc(Sc3ccc(F)c(F)c3)c12)NS(=O)(=O)c1cc(Cl)c(Cl)s1 [Compound P209] | < 1000 |
| Cc1cn(Cc2cc(F)cc(F)c2)c2c(/C=C/C(=O)NS(=O)(=O)c3cccs3)cccc12 [Compound P088] | < 1000 |
| Cn1cc(C=CC(=O)NS(=O)(=O)c2cc(F)c(F)cc2F)c2c(Oc3ccc(Cl)c(Cl)c3)cccc21 [Compound P292] | < 1000 |
| O=C(C=Cc1cccc2c1N(Cc1ccc3ccccc3c1)C(=O)C2)NS(=O)(=O)c1cc(F)c(F)cc1F [Compound P416] | < 1000 |
| Cc1cn(Cc2ccc(F)cc2)c2c(C=CC(=O)NS(=O)(=O)c3cc(F)cc(F)c3)cc(F)cc12 [Compound P316] | < 1000 |
